This is an account of results in patent publication US20130165450A1, “Novel Thiazol-Carboximide Derivatives as PDK1 Inhibitors” (priority 2010, published 2013).

This test has as its target T1, recombinant human PDK1 (amino acids 51-556) (Homo sapiens, UniProt O15530).
T1 construct: containing amino acids 51-556 of the human PDK1 enzyme; made in house
T1 sequence (O15530 51-556): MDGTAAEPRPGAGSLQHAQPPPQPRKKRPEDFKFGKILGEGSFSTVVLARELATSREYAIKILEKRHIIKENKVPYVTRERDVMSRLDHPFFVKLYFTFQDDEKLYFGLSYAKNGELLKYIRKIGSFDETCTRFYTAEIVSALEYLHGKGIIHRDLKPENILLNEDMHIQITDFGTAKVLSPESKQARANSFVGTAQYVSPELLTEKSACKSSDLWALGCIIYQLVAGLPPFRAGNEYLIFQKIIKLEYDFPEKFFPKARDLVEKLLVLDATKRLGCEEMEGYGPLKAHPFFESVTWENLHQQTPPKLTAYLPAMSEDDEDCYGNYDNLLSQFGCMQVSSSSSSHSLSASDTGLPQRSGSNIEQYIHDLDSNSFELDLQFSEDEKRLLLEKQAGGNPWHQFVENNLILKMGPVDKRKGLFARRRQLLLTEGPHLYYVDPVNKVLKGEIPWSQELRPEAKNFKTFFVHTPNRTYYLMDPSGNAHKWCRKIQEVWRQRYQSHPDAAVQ
The test is described as follows: PDK1 IMAP fluorescence polarization kinase assay. It is filed as biochemical. To be noted: 10 nM PDK1, 100 nM peptide substrate, 100 nM PIFtide, 2.5 uM ATP, 1.5 hours; rated A-D. (In general: In fluorescence polarisation assays a small probe gives low polarisation when free and higher when bound to something large.)

The term IC50 denotes the concentration that gives 50% inhibition. For the molecule `Nc1ccc(N2CCC[C@@H](N)C2)c(NC(=O)c2csc(-c3cnn(Cc4ccccn4)c3)n2)c1` [Compound 13, N-[5-amino-2-(3(R)-amino-1-piperidinyl)phenyl]-2-[1-(2-pyridinylmethyl)-1H-pyrazol-4-yl]-4-thiazolecarboxamide], the IC50 lay within 1 to 50 nM.
Take `Nc1ccc(N2CCC[C@@H](N)C2)c(NC(=O)c2csc(-c3cnn(Cc4ccc(F)c(F)c4)c3)n2)c1` [Compound 14, N-[5-amino-2-(3(R)-amino-1-piperidinyl)phenyl]-2-[1-[(3,4-difluorophenyl)methyl]-1H-pyrazol-4-yl]-4-thiazolecarboxamide]: the IC50 was in the range of 1 to 50 nM.
Then `Nc1ccc(N2CCC3(CC2)OCCO3)c(NC(=O)c2csc(-c3cnn(Cc4cccc(F)c4)c3)n2)c1` [Compound 15, N-[5-amino-2-(1,4-dioxa-8-azaspiro[4.5]dec-8-yl)phenyl]-2-[1-[(3-fluorophenyl)methyl]-1H-pyrazol-4-yl]-4-thiazolecarboxamide], with 1 to 50 nM.
Take `Nc1ccc(N2CCC[C@@H](N)C2)c(NC(=O)c2csc(-c3cnn(Cc4cc(F)cc(F)c4)c3)n2)c1` [Compound 16, N-[5-amino-2-(3(R)-amino-1-piperidinyl)phenyl]-2-[1-[(3,5-difluorophenyl)methyl]-1H-pyrazol-4-yl]-4-thiazolecarboxamide]: the IC50 was 1 to 50 nM.
For `Nc1ccc(N2CCC[C@@H](N)C2)c(NC(=O)c2csc(-c3cnn(CCc4ccccc4)c3)n2)c1` [Compound 17, N-[5-amino-2-(3(R)-amino-1-piperidinyl)phenyl]-2-[1-(2-phenylethyl)-1H-pyrazol-4-yl]-4-thiazolecarboxamide], the IC50 was in the range of 1 to 50 nM.
The value for `Nc1ccc(N2CCC[C@@H](N)C2)c(NC(=O)c2csc(-c3cnn(Cc4cccnc4)c3)n2)c1` [Compound 18, N-[5-amino-2-(3(R)-amino-1-piperidinyl)phenyl]-2-[1-(3-pyridinylmethyl)-1H-pyrazol-4-yl]-4-thiazolecarboxamide] was 1 to 50 nM; that for `Nc1ccc(N2CCC[C@@H](N)C2)c(NC(=O)c2csc(-c3cnn(Cc4cccc(F)c4)c3)n2)c1` [Compound 19, N-[5-amino-2-(3(R)-amino-1-piperidinyl)phenyl]-2-[1-[(3-fluorophenyl)methyl]-1H-pyrazol-4-yl]-4-thiazolecarboxamide] was 1 to 50 nM; that for `Nc1ccc(N2CCC3(CCCNC3)CC2)c(NC(=O)c2csc(-c3cnn(Cc4ccccn4)c3)n2)c1` [Compound 20, N-[5-amino-2-(2,9-diazaspiro[5.5]undec-9-yl)phenyl]-2-[1-(2-pyridinylmethyl)-1H-pyrazol-4-yl]-4-thiazolecarboxamide] was 51 to 250 nM.
Then `Nc1ccc(N2CCC[C@@H](N)C2)c(NC(=O)c2csc(-c3cnn(Cc4ccccc4F)c3)n2)c1` [Compound 21, N-[5-amino-2-(3(R)-amino-1-piperidinyl)phenyl]-2-[1-[(2-fluorophenyl)methyl]-1H-pyrazol-4-yl]-4-thiazolecarboxamide], with 1 to 50 nM; and `Nc1ccc(N2CCC[C@@H](N)C2)c(NC(=O)c2csc(-c3cnn(Cc4cc(F)ccc4F)c3)n2)c1` [Compound 22, N-[5-amino-2-(3(R)-amino-1-piperidinyl)phenyl]-2-[1-[(2,5-difluorophenyl)methyl]-1H-pyrazol-4-yl]-4-thiazolecarboxamide], with 1 to 50 nM.
The value for `N[C@@H]1CCCN(c2c(F)cccc2NC(=O)c2csc(-c3cnn(Cc4cccs4)c3)n2)C1` [Compound 23, N-[2-(3(R)-amino-1-piperidinyl)-3-fluorophenyl]-2-[1-(2-thienylmethyl)-1H-pyrazol-4-yl]-4-thiazolecarboxamide] was 1 to 50 nM; that for `NCC1CCN(c2ccc(N)cc2NC(=O)c2csc(-c3cnn(Cc4ccccn4)c3)n2)CC1` [Compound 24, N-[5-amino-2-[4-(aminomethyl)-1-piperidinyl]phenyl]-2-[1-(2-pyridinylmethyl)-1H-pyrazol-4-yl]-4-thiazolecarboxamide] was 51 to 250 nM.
Regarding `N[C@@H]1CCCN(c2c(F)cccc2NC(=O)c2csc(-c3cnn(Cc4ccccc4)c3)n2)C1` [Compound 25, N-[2-(3(R)-amino-1-piperidinyl)-3-fluorophenyl]-2-[1-(phenylmethyl)-1H-pyrazol-4-yl]-4-thiazolecarboxamide], the IC50 fell in the range of 51 to 250 nM.
Take `COCCn1cc(-c2nc(C(=O)Nc3cc(N)ccc3N3CCC[C@@H](N)C3)cs2)cn1` [Compound 26, N-[5-amino-2-(3(R)-amino-1-piperidinyl)phenyl]-2-[1-(2-methoxyethyl)-1H-pyrazol-4-yl]-4-thiazolecarboxamide]: the IC50 was 1 to 50 nM.
The value for `N[C@@H]1CCCN(c2c(F)cccc2NC(=O)c2csc(-c3cnn(Cc4ccccn4)c3)n2)C1` [Compound 27, N-[2-(3(R)-amino-1-piperidinyl)-3-fluorophenyl]-2-[1-(2-pyridinylmethyl)-1H-pyrazol-4-yl]-4-thiazolecarboxamide] was 51 to 250 nM; that for `Nc1ccc(N2CC[C@@H](N)C2)c(NC(=O)c2csc(-c3cnn(Cc4ccccn4)c3)n2)c1` [Compound 29, N-[5-amino-2-(3(R)-amino-1-pyrrolidinyl)phenyl]-2-[1-(2-pyridinylmethyl)-1H-pyrazol-4-yl]-4-thiazolecarboxamide] was 51 to 250 nM; that for `CC(c1ccccc1)n1cc(-c2nc(C(=O)Nc3cc(N)ccc3N3CCC[C@@H](N)C3)cs2)cn1` (stereo partly drawn) [Compound 30, N-[5-amino-2-(3(R)-amino-1-piperidinyl)phenyl]-2-[1-(1-phenylethyl)-1H-pyrazol-4-yl]-4-thiazolecarboxamide] was 51 to 250 nM.
Then `N[C@@H]1CCCN(c2c(F)cccc2NC(=O)c2csc(-c3cnn(Cc4cccnc4)c3)n2)C1` [Compound 31, N-[2-(3(R)-amino-1-piperidinyl)-3-fluorophenyl]-2-[1-(3-pyridinylmethyl)-1H-pyrazol-4-yl]-4-thiazolecarboxamide], with 51 to 250 nM; and `N[C@@H]1CCCN(c2c(F)cccc2NC(=O)c2csc(-c3cnn(Cc4c(F)cccc4F)c3)n2)C1` [Compound 32, N-[2-(3(R)-amino-1-piperidinyl)-3-fluorophenyl]-2-[1-[(2,6-difluorophenyl)methyl]-1H-pyrazol-4-yl]-4-thiazolecarboxamide], with 51 to 250 nM.
Then `N[C@@H]1CCCN(c2c(F)cccc2NC(=O)c2csc(-c3cnn(Cc4ccccc4OC(F)(F)F)c3)n2)C1` [Compound 33, N-[2-(3(R)-amino-1-piperidinyl)-3-fluorophenyl]-2-[1-[[2-(trifluoromethoxy)phenyl]methyl]-1H-pyrazol-4-yl]-4-thiazolecarboxamide], with > 1000 nM; and `Nc1ccc(N2CCC3(CC2)OCCO3)c(NC(=O)c2csc(-c3cnn(Cc4cccs4)c3)n2)c1` [Compound 34, N-[5-amino-2-(1,4-dioxa-8-azaspiro[4.5]dec-8-yl)phenyl]-2-[1-(2-thienylmethyl)-1H-pyrazol-4-yl]-4-thiazolecarboxamide], with 51 to 250 nM.
Turning to `N[C@@H]1CCCN(c2c(F)cccc2NC(=O)c2csc(-c3cnn(Cc4c(F)cccc4C(F)(F)F)c3)n2)C1` [Compound 35, N-[2-(3(R)-amino-1-piperidinyl)-3-fluorophenyl]-2-[1-[[2-fluoro-6-(trifluoromethyl)phenyl]methyl]-1H-pyrazol-4-yl]-4-thiazolecarboxamide], the IC50 is > 1000 nM.
For the molecule `N[C@@H]1CCCN(c2c(F)cccc2NC(=O)c2csc(-c3cnn(Cc4ccccc4OC(F)F)c3)n2)C1` [Compound 36, N-[2-(3(R)-amino-1-piperidinyl)-3-fluorophenyl]-2-[1-[[2-(difluoromethoxy)phenyl]methyl]-1H-pyrazol-4-yl]-4-thiazolecarboxamide], the IC50 fell in the range of 251 to 1000 nM.
With `N[C@@H]1CCCN(c2c(F)cccc2NC(=O)c2csc(-c3cnn(Cc4ccccc4SC(F)(F)F)c3)n2)C1` [Compound 37, N-[2-(3(R)-amino-1-piperidinyl)-3-fluorophenyl]-2-[1-[[2-[(trifluoromethyl)thio]phenyl]methyl]-1H-pyrazol-4-yl]-4-thiazolecarboxamide], the IC50 is > 1000 nM.
The value for `N[C@@H]1CCCN(c2c(F)cccc2NC(=O)c2csc(-c3cnn(Cc4c(F)cc(F)cc4F)c3)n2)C1` [Compound 38, N-[2-(3(R)-amino-1-piperidinyl)-3-fluorophenyl]-2-[1-[(2,4,6-trifluorophenyl)methyl]-1H-pyrazol-4-yl]-4-thiazolecarboxamide] was 251 to 1000 nM; that for `O=C(Nc1ccccc1N1CCNCC1)c1csc(-c2cnn(Cc3cc(F)ccc3F)c2)n1` [Compound 39, 2-[1-[(2,5-difluorophenyl)methyl]-1H-pyrazol-4-yl]-N-[2-(1-piperazinyl)phenyl]-4-thiazolecarboxamide] was 251 to 1000 nM; that for `N[C@@H]1CCCN(c2c(F)cccc2NC(=O)c2csc(-c3cnn(CCOCc4ccccc4)c3)n2)C1` [Compound 40, N-[2-(3(R)-amino-1-piperidinyl)-3-fluorophenyl]-2-[1-[2-(phenylmethoxy)ethyl]-1H-pyrazol-4-yl]-4-thiazolecarboxamide] was 251 to 1000 nM.
Regarding `N[C@@H]1CCCN(c2c(F)cccc2NC(=O)c2csc(-c3cnn(Cc4ccccc4CO)c3)n2)C1` [Compound 42, N-[2-(3(R)-amino-1-piperidinyl)-3-fluorophenyl]-2-[1-[[2-(hydroxymethyl)phenyl]methyl]-1H-pyrazol-4-yl]-4-thiazolecarboxamide], the IC50 lay within 51 to 250 nM.
